This data set can be described thus: Pd(II)-catalysed intramolecular ortho C(sp2)-H olefination (oxidative Heck-type aryl-alkenyl C-C bond) of peptide aryl/benzyl/thienyl sulfonamides with pendant acrylate or unactivated terminal alkene; Pd(OAc)2 10 mol%, AgOAc 2.0 equiv. As to conditions: 1,2-dichloroethane (DCE), 50.0 mM, 80.0 °C, 24.0 h.

The structures appear in SMILES notation.

As to `COC(=O)[C@@H]1COC(=O)C=Cc2ccsc2S(=O)(=O)N[C@@H](COC(C)(C)C)C(=O)NCC(=O)N2CCC[C@H]2C(=O)N1` [(thiophene-2-SO2)-Ser(tBu)-Gly-Pro-Ser(O-acryloyl)-OMe], where the note is “from C=CC(=O)OC[C@H](NC(=O)[C@@H]1CCCN1C(=O)CNC(=O)[C@H](COC(C)(C)C)NS(=O)(=O)c1cccs1)C(=O)OC, 19-membered ring”, the ring closure, isolated yield was 53%.
As for `COC(=O)[C@@H]1COC(=O)C=Cc2ccsc2S(=O)(=O)N[C@@H](C(C)(C)C)C(=O)NCC(=O)N2CCC[C@H]2C(=O)N1` [(thiophene-2-SO2)-tLeu-Gly-Pro-Ser(O-acryloyl)-OMe], the ring closure, isolated yield (from C=CC(=O)OC[C@H](NC(=O)[C@@H]1CCCN1C(=O)CNC(=O)[C@@H](NS(=O)(=O)c1cccs1)C(C)(C)C)C(=O)OC, 19-membered ring) is 59%.
As to `COC(=O)[C@@H]1COC(=O)C=Cc2ccccc2CS(=O)(=O)N[C@@H](C(C)(C)C)C(=O)NCC(=O)NCC(=O)NCC(=O)N1` [PhCH2SO2-tLeu-Gly-Gly-Gly-Ser(O-acryloyl)-OMe], for the setting “from C=CC(=O)OC[C@H](NC(=O)CNC(=O)CNC(=O)CNC(=O)[C@@H](NS(=O)(=O)Cc1ccccc1)C(C)(C)C)C(=O)OC, 23-membered ring”, the ring closure, isolated yield was found to be 34%.
Take `COC(=O)[C@@H]1COC(=O)C=Cc2ccccc2CS(=O)(=O)N[C@@H](C(C)(C)C)C(=O)NCC(=O)NCC(=O)N1` [PhCH2SO2-tLeu-Gly-Gly-Ser(O-acryloyl)-OMe]: the ring closure, isolated yield (from C=CC(=O)OC[C@H](NC(=O)CNC(=O)CNC(=O)[C@@H](NS(=O)(=O)Cc1ccccc1)C(C)(C)C)C(=O)OC, 20-membered ring) came to 45%.
For `COC(=O)[C@@H]1Cc2ccc(cc2)OC(=O)C=Cc2ccccc2CS(=O)(=O)N[C@@H](C(C)(C)C)C(=O)NCC(=O)N2CCC[C@H]2C(=O)N1` [PhCH2SO2-tLeu-Gly-Pro-Tyr(O-acryloyl)-OMe], the ring closure, isolated yield (from C=CC(=O)Oc1ccc(C[C@H](NC(=O)[C@@H]2CCCN2C(=O)CNC(=O)[C@@H](NS(=O)(=O)Cc2ccccc2)C(C)(C)C)C(=O)OC)cc1, 24-membered ring) stood at 72%.
Take `COC(=O)[C@@H]1COC(=O)C=Cc2ccccc2CS(=O)(=O)N[C@@H](C(C)(C)C)C(=O)NCC(=O)N1` [PhCH2SO2-tLeu-Gly-Ser(O-acryloyl)-OMe]: the ring closure, isolated yield (from C=CC(=O)OC[C@H](NC(=O)CNC(=O)[C@@H](NS(=O)(=O)Cc1ccccc1)C(C)(C)C)C(=O)OC, 17-membered ring) is 58%.
On to `COC(=O)[C@@H]1COC(=O)CCC=Cc2ccccc2CS(=O)(=O)N[C@@H](C(C)(C)C)C(=O)NCC(=O)N1` [PhCH2SO2-tLeu-Gly-Ser(O-pent-4-enoyl)-OMe], for which the ring closure, isolated yield (from C=CCCC(=O)OC[C@H](NC(=O)CNC(=O)[C@@H](NS(=O)(=O)Cc1ccccc1)C(C)(C)C)C(=O)OC, 19-membered ring) amounted to 53%.
`COC(=O)[C@@H]1COC(=O)C=Cc2ccccc2CS(=O)(=O)N[C@@H](C(C)(C)C)C(=O)N1` [PhCH2SO2-tLeu-Ser(O-acryloyl)-OMe]: under “from C=CC(=O)OC[C@H](NC(=O)[C@@H](NS(=O)(=O)Cc1ccccc1)C(C)(C)C)C(=O)OC, 14-membered ring”, the ring closure, isolated yield was found to be 52%.
Take `COC(=O)[C@@H]1COC(=O)C=Cc2ccccc2S(=O)(=O)N[C@@H](C(C)(C)C)C(=O)NCC(=O)N2CCC[C@H]2C(=O)N1` [PhSO2-tLeu-Gly-Pro-Ser(O-acryloyl)-OMe]: the ring closure, isolated yield (from C=CC(=O)OC[C@H](NC(=O)[C@@H]1CCCN1C(=O)CNC(=O)[C@@H](NS(=O)(=O)c1ccccc1)C(C)(C)C)C(=O)OC, 19-membered ring) was 67%.
Regarding `COC(=O)[C@@H]1Cc2ccc(cc2)OCC=Cc2ccccc2S(=O)(=O)N[C@@H](C(C)(C)C)C(=O)NCC(=O)N2CCC[C@H]2C(=O)N1` [PhSO2-tLeu-Gly-Pro-Tyr(O-allyl)-OMe], for the setting “from C=CCOc1ccc(C[C@H](NC(=O)[C@@H]2CCCN2C(=O)CNC(=O)[C@@H](NS(=O)(=O)c2ccccc2)C(C)(C)C)C(=O)OC)cc1, 23-membered ring”, the ring closure, isolated yield turned out to be 61%.

These data come from PMC6107497.
